Patent publication US11591298B2, “Bisaminoquinoline compounds, pharmaceutical compositions prepared therefrom and their use” (THE TRUSTEES OF THE UNIVERSITY OF PENNSYLVANIA, priority 2011, dated 2023)
Like-named read-outs stand apart in the source and are kept apart here.

Tests used:
[1] = test system: LN229 (human glioblastoma); assay: Cell death of cultured LN229 cells; assay type: cell-based; settings: concentrations of 10 μM or higher, between 4-24 hours
LN229 GFP-LC3 cells [2] = assay: GFP-LC3 puncta imaging in LN229 GFP-LC3 cells; assay type: cell-based, human; settings: for GFP-LC3 punctate fluorescence: within 4 hours
[3] = test system: LN229 (glioma), 1205Lu (melanoma), HT-29 (colon) and c8161 (melanoma) cells; assay: MTT assay (72 hours) in 4 cell lines; assay type: cell-based; settings: range over the 4 cell lines tested
Procedure: FIGS. 4A, 4B, 4C, 4D. […] White arrows: small puncta; red arrows: dense puncta. Graphs show mean+/−SEM puncta/cell. (4B) Representative electron micrographs of LN229-GFP-LC3 cells treated (4 hours) with DMSO, HCQ 10 μM, or Lys01 10 μM Arrows: Autophagic vesicles. (4C) LC3 immunoblotting of LN229 cells treated for 24 hours an indicated; calculated ratio of LC3II/LC3I ratios for bafilomycin versus control co-treatment. […] (4D) MTT assay (72 hours) for 4 cell lines. Red: Lys01, Blue: Lys02, Purple: Lys03 Green: Lys04 Orange: HCQ. Values presented are means+/−SEM with 5 replicates per treatment.
The MTT assay was used to assess viable cells at 72 hours.

[4] = test system: LC3II/LC3I ratio in LN229 cells; assay: LC3 immunoblotting (LC3II/LC3I ratio) in LN229 cells; assay type: cell-based, human; settings: concentration of 10 μM, 4 hours
Procedure: FIG. 3. Effects of Lys01-Lys04 on LC3 immunoblotting Immunoblotting and quantification of LC3II/LC3I ratio in lysates from LN229 cells treated for 4 hours. The graphs show (mean+/−SD) LC3II/LC3I ratios of each treatment normalized to the LC3II/LC3I ratio of control treated cells for each experiment.
LN229 (human glioblastoma) were treated with Lys01 and derivatives Lys02, Lys03, Lys04, HCQ and CQ. […] LC3 is a ubiquitin-like protein which exists as an unconjugated form (LC3I) or conjugated to AV membranes (LC3II) (25). The ratio of LC3II/LC3I reflects the accumulation of AV in cells, and therefore effective autophagy inhibition.

HCC827 = assay: Cell death after 24 hours in HCC827 cells; assay type: cell-based; settings: 10 μM
c8161 cells [5] = assay: MTT assay in c8161 cells at 72 hours; assay type: cell-based; settings: Lys01 versus Lys05
Procedure: (§1) FIGS. 5A, 5B. […] (5A) Immunoblotting against LC3 and p62 in c8161 cells treated as indicated (5B) MTT assay in c8161 cells at 72 hours. HCQ: Hydroxychloroquine.
(§2) Lys05, the trihydrochloride salt of Lys01 was synthesized to enhance aqueous solubility and to enable in vivo studies. […] To investigate the safety of Lys05 and its in vivo effects on autophagy, c8161 xenografts matched for tumor size were treated with intraperitoneal (i.p.) daily PBS, or equimolar doses of HCQ or Lys05 (HCQ 60 mg/kg (138 nmoles/g), Lys05 76 mg/kg (138 nmoles/g)) for 48 hours. […] After 48 hours of treatment mice were euthanized, and tumors were processed for electron microscopy (EM).

c8161 cells [6] = assay: Immunoblotting against LC3 and p62 in c8161 cells; assay type: cell-based; settings: Lys01 versus Lys05
Procedure: as §1, §2

1205Lu = assay: Cell death after 24 hours in 1205Lu cells; assay type: cell-based; settings: 10 μM
P. falciparum = P. falciparum strains grown in vitro in human RBC (Table 2, FIG. 17); assay type: cell-based; settings: some CQ-resistant cell lines; values only in FIG. 17
Description: FIG. 17, Table 2 provides IC50 (M) values of a number of compounds according to the present invention in P. falciparum.
There is a similar activity profile for anticancer activity of Lys01 derivatives and malaria cytotoxicity.

acid phosphatase [7] = settings: 1205Lu xenograft tumors; after 14 days of treatment
[8] = test system: HT-29 colon cancer xenografts
Procedure: (§3) FIGS. 6A, 6B, 6C, 6D, 6E, 6F, 6G. […] (6A) Representative electron micrographs (12,000×) of c8161 xenograft tumors harvested after 2 days of daily i.p. treatment with PBS, HCQ 60 mg/kg, or Lys05 76 mg/kg. Arrows: autophagic vesicles; scale bar 2 μm (6B) Quantification of mean+SEM number of autophagic vesicles/cell from two representative tumors from each treatment group. (C-D) 1205Lu xenografts were treated with PBS (blue), HCQ 60 mg/kg ip (green), or Lys05 76 mg/kg (red) i.p. every 3/5 days. (6C) Tumor volumes over 14 days (6D) Daily tumor growth rate. (E-G) HT29 xenografts were generated in the flanks of nude mice and treated with PBS, Lys05 10 mg/kg/ip daily, Lys05 40 mg/kg ip daily, or Lys05 80 mg/kg ip every 3/5 days. (6E) Average daily tumor growth rate. (6F) Tumor volumes over 14 days.
(§4) FIGS. 7A, 7B, 7C. […] (7A) Immunoblotting against LC3 in lysates from individual c8161 tumors treated as indicated with daily i.p. injections for 48 hours. […] Arrows: Autophagic vesicle (white); apoptotic cell (orange) (7C) Immunoblotting against LC3 in HT29 xenografts treated with daily dosing (10, 40 mg/kg) or 3/5 days (80 mg/kg) for 14 days.

cathepsin D [9] = settings: 1205Lu xenograft tumors; 14 days
c8161 xenografts = test system: c8161 xenografts
Procedure: as §3, §4, §2

LN229 GFP-LC3 cells [10] = assay: Bafilomycin clamp experiment (LC3 immunoblotting); assay type: cell-based, human; settings: 24 hours; HCQ 10 μM, Lys01 10 μM, rapamycin
Procedure: FIGS. 4A, 4B, 4C, 4D. Autophagy inhibition and cytotoxicity of Lys01 compared to HCQ (4A) Representative images of LN229 GFP-LC3 cells treated as indicated for 4 hours. White arrows: small puncta; red arrows: dense puncta. Graphs show mean+/−SEM puncta/cell. (4B) Representative electron micrographs of LN229-GFP-LC3 cells treated (4 hours) with DMSO, HCQ 10 μM, or Lys01 10 μM Arrows: Autophagic vesicles. (4C) LC3 immunoblotting of LN229 cells treated for 24 hours an indicated; calculated ratio of LC3II/LC3I ratios for bafilomycin versus control co-treatment. Above the dashed line indicates an autophagy inducer or control, below the dashed line indicated an autophagy inhibitor. (4D) MTT assay (72 hours) for 4 cell lines. Red: Lys01, Blue: Lys02, Purple: Lys03 Green: Lys04 Orange: HCQ. Values presented are means+/−SEM with 5 replicates per treatment.
To further characterize the effects of Lys01 on autophagy, LN229 GFP-LC3 cells were treated with Lys01 or HCQ (FIG. 4A). […] Electron micrographs of LN229 GFP-LC3 cells treated with DMSO, HCQ, or Lys01 further characterized the significant morphological difference in the size and number of vesicles produced by blockade of autophagy with these agents (FIG. 4B). Thus, Lys01 produces morphological changes more pronounced than HCQ, a known lysosomal inhibitor, at 10-fold lower concentrations. […]

mice [11] = settings: mouse, in vivo, ip, 76 mg/kg
Procedure: For chronic treatment experiments the 1205Lu melanoma model was chosen over the c8161 xenograft model because c8161 xenografts tend to spontaneously ulcerate confounding tumor measurements and safety analysis. Ten mice bearing 1205Lu xenografts were matched for tumor volume per cohort were assigned to either PBS, HCQ 60 mg/kg i.p. or Lys05 76 mg/kg i.p. (equimolar dosing) dosed for 3 days of daily treatment with 2 days off treatment (3/5 days) for all 3 treatment groups, to allow for symptom recovery and to avoid excess toxicity.
Paneth cell dysfunction, including reduced size and number of eosinophilic lysozyme-containing granules, has previously been described as the pathognomonic sign of autophagy deficiency in mice and a subset of Crohn's disease patients that have a genetic deficiency in the essential autophagy gene ATG16L1 (31).

acid phosphatase [12] = settings: 1205Lu cells; 10 μM; within 24 hours
[13] = Acridine orange staining of acidic vesicles; assay type: cell-based; settings: 24 hours
[14] = assay type: cell-based; settings: within 30 minutes
mice [15] = test system: mice
Procedure: as §2

1205Lu xenografts = assay: 1205Lu xenograft antitumor activity (14 days); assay type: in vivo, nude mice
cathepsin D [16] = settings: 1205Lu cells; within 24 hours; compared to HCQ- or PBS-treated cells
mice [17] = test system: mice; remark: listed apart in the source

## CN(CCNc1ccnc2cc(Cl)ccc12)CCNc1ccnc2cc(Cl)ccc12 [Lys01]
[1]
  cell death of cultured cells: Near complete cell death
LN229 GFP-LC3 cells [2]; 1 μM
  GFP-LC3 punctate fluorescence: numerous small puncta
LN229 GFP-LC3 cells [2]; 10 μM, 4 hours
  increase in GFP-LC3 puncta per cell, 10 μM Lys01 compared to 10 μM HCQ: 5 fold
LN229 GFP-LC3 cells [2]; 10 μM
  GFP-LC3 punctate fluorescence: dense puncta
LN229 GFP-LC3 cells [2]; 100 μM
  cell death: dead by 4 hours
LN229 GFP-LC3 cells [2]; Lys01 10 μM versus 100 μM HCQ
  average number of vesicles per cell: higher than in cells treated with 100 μM HCQ
[3]
  IC50: 4 to 8 µM
[4]
  potency as autophagy inhibitor relative to HCQ or CQ (LC3 immunoblotting): > 10 fold
HCC827
  cell death: Near complete cell death
c8161 cells [5]
  IC50 values in the MTT assay: identical
c8161 cells [6]
  LC3II/LC3I ratio: equivalent dose-dependent increases
  autophagy cargo protein p62: accumulation
1205Lu
  cell death: Near complete cell death
P. falciparum
  IC50, activity compared to artesunate: more active than artesunate

## CN(CCNc1ccnc2cc(Cl)ccc12)CCNc1ccnc2cc(Cl)ccc12.Cl.Cl.Cl [Lys05]
Acid phosphatase [7]
  increase in extralysosomal acid phosphatase activity: 1.75 fold
[8]; 10 mg/kg daily dosing, end of the experiment
  excised tumor weights: significant antitumor activity
[8]; 10, 40 mg/kg i.p. daily, 80 mg/kg i.p. 3/5 days
  average daily tumor growth rate: significantly impaired in a dose-dependent fashion
[8]; after 14 days, all Lys05 doses including 10 mg/kg
  LC3II/LC3I ratio in tumor lysates compared to control: significant increase
[8]; all 3 doses of Lys05
  tumor growth curves compared to control: significant tumor growth impairment
Cathepsin D [9]
  increased acid-dependent processing of cathepsin D within the whole cell homogenate: not observed
c8161 xenografts; 76 mg/kg i.p. daily, 48 hours
  LC3II/LC3I levels in tumors compared to control- or HCQ-treated tumors: Significantly higher
c8161 xenografts; Lys05 76 mg/kg i.p. daily, 48 hours, electron microscopy
  increase in the mean number of AV/cell compared to control- or HCQ-treated tumors: > 2 fold
c8161 xenografts; after 48 hours of treatment
  cleaved caspase 3 levels compared to HCQ- or PBS-treated tumors: elevated
LN229 GFP-LC3 cells [10]
  LC3II/LC3I ratio in bafilomycin treated cells compared to control cells: did not demonstrate an increase
Mice [11]
  clinical signs: lethargic with arched backs
  histology of the ileum: Paneth cells: dysmorphic Paneth cells
Acid phosphatase [12]
  reduction in acid phosphatase activity in the lysosomal fraction versus PBS treated cells: 43%
[13]; 10 μM
  acidic vesicles (acridine orange): accumulation of acidic vesicles
[13]; 50 μM
  acidic vesicles (acridine orange): no acidic vesicles were observed
c8161 cells [5]
  IC50 values in the MTT assay: identical
[14]; 10 μM
  Lysotracker-positive puncta: fewer Lysotracker-positive puncta
[14]; 100 μM
  Lysotracker-positive puncta: fewer Lysotracker-positive puncta
Mice [15]; daily i.p. for 48 hours, HCQ 60 mg/kg, Lys05 76 mg/kg
  mortality: no mice died
Mice [15]; mouse, in vivo, ip, 76 mg/kg
  clinical signs: arched backs and lethargy
c8161 cells [6]
  LC3II/LC3I ratio: equivalent dose-dependent increases
  autophagy cargo protein p62: accumulation
1205Lu xenografts; Lys05 76 mg/kg i.p. 3/5 days, 14 days
  tumor growth (growth curves) compared to controls: significantly impaired
1205Lu xenografts; Lys05 76 mg/kg i.p. 3/5 days, p=0.002
  reduction in the average daily tumor growth rate compared to vehicle treated controls: 53%
1205Lu xenografts; Lys05 76 mg/kg i.p. 3/5 days, vehicle 31.2
  average daily tumor growth rate: 14.6 mm^3/day
1205Lu xenografts; center of tumors, after 14 days
  tumor necrosis: Extensive tumor necrosis
1205Lu xenografts; end of 14 days of treatment, HCQ 60 mg/kg, Lys05 76 mg/kg i.p. 3/5 days
  increase in AV/cell compared to control treated tumors: 6 fold
Cathepsin D [16]
  acid-dependent processing of immature cathepsin D to the mature activated form within the lysosome: decreased acid-dependent processing
Mice [17]; 80 mg/kg i.p. 3/5 days
  mice euthanized early for bowel obstruction: 2/8
Mice [17]; mouse, in vivo
  bowel thickening and obstruction: limited to 80 mg/kg dose cohort
